# Measurements taken from ChEMBL document CHEMBL1136991, “Novel potent BRAF inhibitors: toward 1 nM compounds through optimization of the central phenyl ring” (J Med Chem, 2009).
# Key:
# [1] = target: RAC-alpha serine/threonine-protein kinase (Homo sapiens) (UniProt P31749); experiment: Inhibition of PKBalpha at 1 uM relative to control
# [2] = target: T1, Serine/threonine-protein kinase Chk1 (Homo sapiens) (UniProt O14757); experiment: Inhibition of CHK1 at 1 uM relative to control
# T1 sequence (whole entry): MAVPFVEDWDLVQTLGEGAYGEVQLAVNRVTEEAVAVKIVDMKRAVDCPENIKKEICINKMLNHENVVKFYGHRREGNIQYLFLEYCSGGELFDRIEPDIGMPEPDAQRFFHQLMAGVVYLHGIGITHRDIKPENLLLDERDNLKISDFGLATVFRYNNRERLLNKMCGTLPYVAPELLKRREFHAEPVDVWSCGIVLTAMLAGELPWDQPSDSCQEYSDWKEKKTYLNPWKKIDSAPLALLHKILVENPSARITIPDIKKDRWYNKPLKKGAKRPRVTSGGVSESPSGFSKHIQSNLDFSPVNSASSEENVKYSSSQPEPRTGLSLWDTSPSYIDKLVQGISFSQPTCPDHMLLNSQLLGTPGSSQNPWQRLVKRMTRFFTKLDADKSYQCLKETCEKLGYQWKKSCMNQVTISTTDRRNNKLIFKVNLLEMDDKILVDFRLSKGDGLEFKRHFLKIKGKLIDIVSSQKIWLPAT
# [3] = target: Mitogen-activated protein kinase 1 (Homo sapiens) (UniProt P28482); experiment: Inhibition of ERK2 at 1 uM relative to control
# Chain of Mitogen-activated protein kinase 1 (Homo sapiens) (P28482 whole entry): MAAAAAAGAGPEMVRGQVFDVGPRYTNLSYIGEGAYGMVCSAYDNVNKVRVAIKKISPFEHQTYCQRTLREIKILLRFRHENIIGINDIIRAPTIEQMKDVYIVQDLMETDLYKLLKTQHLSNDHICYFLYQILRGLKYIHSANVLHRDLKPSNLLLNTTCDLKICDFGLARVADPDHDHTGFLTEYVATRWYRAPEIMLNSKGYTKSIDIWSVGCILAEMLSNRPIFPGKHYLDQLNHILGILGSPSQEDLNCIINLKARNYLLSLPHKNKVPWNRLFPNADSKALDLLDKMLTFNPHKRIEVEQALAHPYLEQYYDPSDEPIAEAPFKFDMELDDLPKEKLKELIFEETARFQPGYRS
# [4] = target: Serine/threonine-protein kinase PAK 6 (Homo sapiens) (UniProt Q9NQU5); experiment: Inhibition of PAK6 at 1 uM relative to control
# Chain of Serine/threonine-protein kinase PAK 6 (Homo sapiens) (Q9NQU5 whole entry, looked up): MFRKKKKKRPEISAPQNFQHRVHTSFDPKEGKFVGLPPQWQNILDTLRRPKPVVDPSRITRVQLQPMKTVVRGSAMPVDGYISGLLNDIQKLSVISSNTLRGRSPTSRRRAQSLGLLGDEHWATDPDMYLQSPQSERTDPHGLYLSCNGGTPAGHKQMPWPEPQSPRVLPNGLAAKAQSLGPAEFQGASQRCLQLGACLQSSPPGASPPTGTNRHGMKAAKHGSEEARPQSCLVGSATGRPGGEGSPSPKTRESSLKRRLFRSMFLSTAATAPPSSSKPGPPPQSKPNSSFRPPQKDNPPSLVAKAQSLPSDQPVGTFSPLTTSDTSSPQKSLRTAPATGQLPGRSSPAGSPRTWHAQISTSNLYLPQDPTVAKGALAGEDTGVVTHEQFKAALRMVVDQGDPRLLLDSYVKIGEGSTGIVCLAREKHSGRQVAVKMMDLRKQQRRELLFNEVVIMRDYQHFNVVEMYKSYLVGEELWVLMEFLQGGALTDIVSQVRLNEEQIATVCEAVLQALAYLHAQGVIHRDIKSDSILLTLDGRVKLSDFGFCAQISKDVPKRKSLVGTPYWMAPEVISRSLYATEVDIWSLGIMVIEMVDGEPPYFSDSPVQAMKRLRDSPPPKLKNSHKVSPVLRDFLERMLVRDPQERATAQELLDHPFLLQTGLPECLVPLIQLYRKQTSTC
# [5] = target: Mitogen-activated protein kinase 3 (Homo sapiens) (UniProt P27361); experiment: Inhibition of ERK1 at 1 uM relative to control
# Chain of Mitogen-activated protein kinase 3 (Homo sapiens) (P27361 whole entry): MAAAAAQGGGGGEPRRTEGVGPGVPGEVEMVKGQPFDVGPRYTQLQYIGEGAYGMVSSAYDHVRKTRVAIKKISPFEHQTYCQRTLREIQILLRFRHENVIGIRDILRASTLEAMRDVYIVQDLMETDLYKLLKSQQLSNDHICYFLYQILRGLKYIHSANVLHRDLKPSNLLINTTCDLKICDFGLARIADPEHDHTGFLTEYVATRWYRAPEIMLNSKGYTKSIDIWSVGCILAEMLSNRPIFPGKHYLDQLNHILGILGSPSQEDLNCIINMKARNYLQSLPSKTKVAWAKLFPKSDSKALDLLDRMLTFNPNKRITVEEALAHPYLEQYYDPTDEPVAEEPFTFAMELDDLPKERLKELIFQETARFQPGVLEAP
# [6] = target: Mitogen-activated protein kinase 8 (Homo sapiens) (UniProt P45983); experiment: Inhibition of JNK1 at 1 uM relative to control
# Chain of Mitogen-activated protein kinase 8 (Homo sapiens) (P45983 whole entry): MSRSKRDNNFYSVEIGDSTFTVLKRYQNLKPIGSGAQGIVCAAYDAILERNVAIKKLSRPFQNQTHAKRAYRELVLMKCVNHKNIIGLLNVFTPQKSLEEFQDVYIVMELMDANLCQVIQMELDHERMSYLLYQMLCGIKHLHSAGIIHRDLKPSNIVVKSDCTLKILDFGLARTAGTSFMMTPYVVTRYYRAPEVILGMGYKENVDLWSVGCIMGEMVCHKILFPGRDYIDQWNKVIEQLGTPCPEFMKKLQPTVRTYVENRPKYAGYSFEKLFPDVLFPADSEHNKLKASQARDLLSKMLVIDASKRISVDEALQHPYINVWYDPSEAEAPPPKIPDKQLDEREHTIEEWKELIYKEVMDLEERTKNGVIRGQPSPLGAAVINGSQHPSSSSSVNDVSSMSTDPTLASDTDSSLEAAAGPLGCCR
# [7] = target: Serine/threonine-protein kinase pim-1 (Homo sapiens) (UniProt P11309); experiment: Inhibition of PIM1 at 1 uM relative to control
# Chain of Serine/threonine-protein kinase pim-1 (Homo sapiens) (P11309 whole entry, looked up): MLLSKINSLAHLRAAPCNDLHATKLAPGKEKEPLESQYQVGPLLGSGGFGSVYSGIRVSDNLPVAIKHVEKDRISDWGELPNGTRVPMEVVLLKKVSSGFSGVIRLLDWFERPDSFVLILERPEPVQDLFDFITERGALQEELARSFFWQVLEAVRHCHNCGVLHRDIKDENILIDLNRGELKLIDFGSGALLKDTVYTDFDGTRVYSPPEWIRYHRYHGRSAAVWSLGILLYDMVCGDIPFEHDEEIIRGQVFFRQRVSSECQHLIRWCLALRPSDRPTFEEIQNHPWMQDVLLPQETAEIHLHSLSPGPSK
# [8] = target: T2, Serine/threonine-protein kinase D1 (Homo sapiens) (UniProt Q15139); experiment: Inhibition of PKD1 at 1 uM relative to control
# T2 sequence (whole entry): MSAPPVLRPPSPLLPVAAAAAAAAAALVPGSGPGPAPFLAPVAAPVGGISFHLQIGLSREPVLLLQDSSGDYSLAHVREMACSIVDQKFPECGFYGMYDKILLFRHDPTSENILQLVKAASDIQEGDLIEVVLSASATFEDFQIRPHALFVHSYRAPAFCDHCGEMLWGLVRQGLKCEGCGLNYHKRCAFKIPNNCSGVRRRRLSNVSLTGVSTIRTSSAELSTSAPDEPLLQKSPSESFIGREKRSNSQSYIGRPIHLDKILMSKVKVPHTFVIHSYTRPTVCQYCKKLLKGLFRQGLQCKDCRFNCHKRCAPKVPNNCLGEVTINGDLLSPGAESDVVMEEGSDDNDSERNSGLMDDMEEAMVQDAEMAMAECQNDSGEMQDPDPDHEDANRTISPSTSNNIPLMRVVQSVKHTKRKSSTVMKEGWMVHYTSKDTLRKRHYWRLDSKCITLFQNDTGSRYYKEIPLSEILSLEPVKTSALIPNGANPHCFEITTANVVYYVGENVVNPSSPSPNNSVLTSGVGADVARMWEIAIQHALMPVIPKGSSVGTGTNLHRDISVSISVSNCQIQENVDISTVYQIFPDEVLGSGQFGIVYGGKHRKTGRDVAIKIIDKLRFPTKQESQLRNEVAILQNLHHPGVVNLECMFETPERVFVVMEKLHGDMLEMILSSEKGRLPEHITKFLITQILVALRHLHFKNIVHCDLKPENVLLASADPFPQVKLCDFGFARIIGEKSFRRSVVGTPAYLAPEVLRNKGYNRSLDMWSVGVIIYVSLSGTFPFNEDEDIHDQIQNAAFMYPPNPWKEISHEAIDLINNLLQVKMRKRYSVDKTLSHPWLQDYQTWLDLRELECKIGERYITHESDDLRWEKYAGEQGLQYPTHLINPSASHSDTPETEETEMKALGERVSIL
# [9] = target: MAP kinase-activated protein kinase 3 (Homo sapiens) (UniProt Q16644); experiment: Inhibition of MAPKAP-K3 at 1 uM relative to control
# Chain of MAP kinase-activated protein kinase 3 (Homo sapiens) (Q16644 whole entry, looked up): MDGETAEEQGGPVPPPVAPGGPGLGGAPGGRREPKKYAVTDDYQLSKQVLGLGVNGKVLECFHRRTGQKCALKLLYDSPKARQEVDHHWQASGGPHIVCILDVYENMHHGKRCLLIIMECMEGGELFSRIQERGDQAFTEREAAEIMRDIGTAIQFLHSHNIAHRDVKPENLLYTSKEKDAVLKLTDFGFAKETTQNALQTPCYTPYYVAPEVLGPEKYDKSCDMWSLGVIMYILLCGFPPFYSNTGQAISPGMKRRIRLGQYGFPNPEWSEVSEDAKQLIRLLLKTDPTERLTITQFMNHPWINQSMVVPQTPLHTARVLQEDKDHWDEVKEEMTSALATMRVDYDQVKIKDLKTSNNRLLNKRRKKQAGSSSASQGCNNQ
# [10] = target: Serine/threonine-protein kinase PAK 4 (Homo sapiens) (UniProt O96013); experiment: Inhibition of PAK4 at 1 uM relative to control
# Chain of Serine/threonine-protein kinase PAK 4 (Homo sapiens) (O96013 whole entry, looked up): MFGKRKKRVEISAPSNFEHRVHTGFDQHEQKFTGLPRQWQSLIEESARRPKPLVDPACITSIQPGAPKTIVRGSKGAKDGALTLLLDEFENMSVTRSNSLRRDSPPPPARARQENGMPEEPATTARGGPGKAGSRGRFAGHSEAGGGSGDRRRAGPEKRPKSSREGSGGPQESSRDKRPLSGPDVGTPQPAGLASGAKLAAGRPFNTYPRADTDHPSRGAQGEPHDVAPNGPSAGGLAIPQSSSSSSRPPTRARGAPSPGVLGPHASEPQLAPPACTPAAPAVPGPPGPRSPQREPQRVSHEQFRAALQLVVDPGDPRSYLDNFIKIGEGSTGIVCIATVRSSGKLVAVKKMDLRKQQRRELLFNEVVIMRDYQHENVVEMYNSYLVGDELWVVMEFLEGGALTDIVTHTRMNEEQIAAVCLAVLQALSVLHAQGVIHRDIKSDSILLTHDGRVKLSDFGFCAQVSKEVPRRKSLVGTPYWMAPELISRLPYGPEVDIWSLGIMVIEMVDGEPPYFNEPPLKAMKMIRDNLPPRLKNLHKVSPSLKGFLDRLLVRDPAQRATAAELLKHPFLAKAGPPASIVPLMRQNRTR
# [11] = target: Cyclin-dependent kinase 2 (Homo sapiens) (UniProt P24941); experiment: Inhibition of CDK2/cyclin A at 1 uM relative to control
# [12] = target: Serine/threonine-protein kinase PAK 5 (Homo sapiens) (UniProt Q9P286); experiment: Inhibition of PAK5 at 1 uM relative to control
# [13] = target: Homeodomain-interacting protein kinase 3 (Homo sapiens) (UniProt Q9H422); experiment: Inhibition of HIPK3 at 1 uM relative to control
# Chain of Homeodomain-interacting protein kinase 3 (Homo sapiens) (Q9H422 whole entry, looked up): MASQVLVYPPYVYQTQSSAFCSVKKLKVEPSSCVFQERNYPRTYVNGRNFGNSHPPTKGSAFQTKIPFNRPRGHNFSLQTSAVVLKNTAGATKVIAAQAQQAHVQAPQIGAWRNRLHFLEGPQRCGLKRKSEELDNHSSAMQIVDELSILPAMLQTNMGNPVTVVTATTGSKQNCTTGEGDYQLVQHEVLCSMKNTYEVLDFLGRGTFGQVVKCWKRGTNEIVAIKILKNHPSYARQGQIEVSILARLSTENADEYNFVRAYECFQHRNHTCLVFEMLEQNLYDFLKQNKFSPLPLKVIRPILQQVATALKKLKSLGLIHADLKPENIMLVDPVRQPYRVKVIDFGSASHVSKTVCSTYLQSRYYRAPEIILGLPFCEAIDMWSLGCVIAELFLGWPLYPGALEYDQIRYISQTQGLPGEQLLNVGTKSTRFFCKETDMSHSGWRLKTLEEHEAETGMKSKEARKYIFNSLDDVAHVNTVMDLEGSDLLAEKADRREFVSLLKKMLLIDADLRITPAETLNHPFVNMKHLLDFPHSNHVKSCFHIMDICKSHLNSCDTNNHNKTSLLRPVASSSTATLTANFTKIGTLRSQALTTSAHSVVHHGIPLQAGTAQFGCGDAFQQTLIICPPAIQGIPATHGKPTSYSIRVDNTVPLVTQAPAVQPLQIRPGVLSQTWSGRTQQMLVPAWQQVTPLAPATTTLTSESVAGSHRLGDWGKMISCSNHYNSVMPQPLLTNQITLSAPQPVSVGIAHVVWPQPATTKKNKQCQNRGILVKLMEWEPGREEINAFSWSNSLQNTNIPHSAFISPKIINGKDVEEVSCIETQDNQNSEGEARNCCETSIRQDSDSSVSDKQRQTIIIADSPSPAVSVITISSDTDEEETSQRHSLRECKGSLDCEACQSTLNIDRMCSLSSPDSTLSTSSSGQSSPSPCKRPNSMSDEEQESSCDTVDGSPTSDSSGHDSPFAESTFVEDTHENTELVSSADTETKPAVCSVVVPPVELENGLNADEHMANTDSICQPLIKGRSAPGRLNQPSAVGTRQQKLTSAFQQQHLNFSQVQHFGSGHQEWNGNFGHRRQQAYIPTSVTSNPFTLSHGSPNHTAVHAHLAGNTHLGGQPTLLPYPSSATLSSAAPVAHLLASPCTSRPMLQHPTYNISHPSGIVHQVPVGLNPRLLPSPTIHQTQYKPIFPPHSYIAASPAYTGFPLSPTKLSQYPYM
# [14] = Inhibition of CK1 at 1 uM relative to control
# [15] = target: T3, Serine/threonine-protein kinase BRSK2 (Homo sapiens) (UniProt Q8IWQ3); experiment: Inhibition of BRSK2 at 1 uM relative to control
# T3 sequence (whole entry): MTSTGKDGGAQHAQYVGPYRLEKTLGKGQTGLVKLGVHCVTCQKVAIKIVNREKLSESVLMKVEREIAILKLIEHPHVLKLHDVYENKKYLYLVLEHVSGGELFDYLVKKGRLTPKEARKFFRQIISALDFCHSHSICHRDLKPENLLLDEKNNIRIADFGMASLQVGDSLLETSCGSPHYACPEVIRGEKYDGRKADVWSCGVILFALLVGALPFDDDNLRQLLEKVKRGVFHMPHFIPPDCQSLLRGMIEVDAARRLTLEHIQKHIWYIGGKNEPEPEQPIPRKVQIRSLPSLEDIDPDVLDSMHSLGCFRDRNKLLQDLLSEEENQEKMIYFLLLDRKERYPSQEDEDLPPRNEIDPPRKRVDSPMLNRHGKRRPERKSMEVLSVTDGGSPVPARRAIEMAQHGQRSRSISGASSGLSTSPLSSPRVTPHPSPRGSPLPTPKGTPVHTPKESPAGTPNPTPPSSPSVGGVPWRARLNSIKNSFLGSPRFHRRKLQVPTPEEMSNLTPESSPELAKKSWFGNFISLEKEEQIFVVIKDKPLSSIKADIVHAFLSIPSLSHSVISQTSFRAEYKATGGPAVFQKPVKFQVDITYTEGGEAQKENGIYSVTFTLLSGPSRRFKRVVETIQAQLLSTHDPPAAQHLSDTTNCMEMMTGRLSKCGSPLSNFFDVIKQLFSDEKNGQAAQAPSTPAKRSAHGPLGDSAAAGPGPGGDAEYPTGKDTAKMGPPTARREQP
# Chain of RAC-alpha serine/threonine-protein kinase (Homo sapiens) (P31749 whole entry): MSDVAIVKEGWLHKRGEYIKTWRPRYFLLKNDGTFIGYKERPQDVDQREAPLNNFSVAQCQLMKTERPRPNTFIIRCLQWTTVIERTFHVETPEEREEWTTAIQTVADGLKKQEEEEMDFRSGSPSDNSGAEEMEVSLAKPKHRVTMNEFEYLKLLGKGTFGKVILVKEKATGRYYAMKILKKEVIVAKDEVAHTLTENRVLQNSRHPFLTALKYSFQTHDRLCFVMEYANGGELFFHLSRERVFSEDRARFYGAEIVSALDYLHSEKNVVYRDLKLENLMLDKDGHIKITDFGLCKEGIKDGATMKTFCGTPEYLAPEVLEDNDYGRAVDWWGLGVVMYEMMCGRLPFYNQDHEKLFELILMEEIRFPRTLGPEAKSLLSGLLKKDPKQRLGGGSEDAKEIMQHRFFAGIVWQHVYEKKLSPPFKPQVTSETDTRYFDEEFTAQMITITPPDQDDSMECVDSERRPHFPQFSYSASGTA
Structure (SMILES),residual activity [1],residual activity [2],residual activity [3],residual activity [4],residual activity [5],residual activity [6],residual activity [7],residual activity [8],residual activity [9],residual activity [10],residual activity [11],residual activity [12],residual activity [13],residual activity [14],residual activity [15]
CSc1cc(Oc2ccnc3[nH]c(=O)[nH]c23)ccc1NC(=O)Nc1cccc(C(F)(F)F)c1,100%,100%,100%,100%,100%,100%,100%,75%,100%,75%,100%,75%,100%,75%,50%
O=C(Nc1cc(C(F)(F)F)ccc1F)Nc1ccc(Oc2ccnc3[nH]c(=O)[nH]c23)c2ccccc12,100%,100%,100%,100%,100%,75%,75%,75%,100%,75%,100%,100%,100%,100%,50%
CC(C)(C)c1cccc(NC(=O)Nc2ccc(Oc3ccnc4[nH]c(=O)[nH]c34)c3ccccc23)c1,75%,75%,75%,75%,100%,75%,75%,75%,100%,75%,100%,75%,100%,75%,75%
